Measurements reported in PubChem BioAssay (NCI).
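Cultured in 96-well plates, cells were exposed to test compound for 48 hours across five concentrations. GI50 is the concentration that inhibits growth by half. TGI denotes the concentration required for complete inhibition of growth.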

Assays:
Assay in all cases: NCI-60 cell line screen, 48 h
SW-620 colon = test system: SW-620 colon
K-562 leukemia = test system: K-562 leukemia
MCF7 breast = test system: MCF7 breast
NCI-H226 lung = test system: NCI-H226 lung
SNB-75 CNS = test system: SNB-75 CNS
PC-3 prostate = test system: PC-3 prostate
SF-295 CNS = test system: SF-295 CNS
IGROV1 ovarian = test system: IGROV1 ovarian
HOP-92 NSCLC = test system: HOP-92 NSCLC
MALME-3M melanoma = test system: MALME-3M melanoma

Row | SMILES | GI50 (SW-620 colon) [µM] | TGI (SW-620 colon) [µM] | GI50 (K-562 leukemia) [µM] | TGI (K-562 leukemia) [µM] | GI50 (MCF7 breast) [µM] | TGI (MCF7 breast) [µM] | GI50 (NCI-H226 lung) [µM] | TGI (NCI-H226 lung) [µM] | GI50 (SNB-75 CNS) [µM] | TGI (SNB-75 CNS) [µM] | GI50 (PC-3 prostate) [µM] | TGI (PC-3 prostate) [µM] | GI50 (SF-295 CNS) [µM] | TGI (SF-295 CNS) [µM] | GI50 (IGROV1 ovarian) [µM] | TGI (IGROV1 ovarian) [µM] | GI50 (HOP-92 NSCLC) [µM] | TGI (HOP-92 NSCLC) [µM] | TGI (MALME-3M melanoma) [µM] | GI50 (MALME-3M melanoma) [µM]
1 | N=C(N)c1ccc(-c2ccc(-c3cc(Cl)cc(Cl)c3)o2)nc1 | 1.78 | 3.41 | 1.5 | 3.88 | 1.73 | 3.6 | 2.13 | 5.19 | 1.64 | 3.15 | 1.74 | 3.25 | 1.92 | 3.63 | 2.09 | 3.79 | 1.56 | 3.14 | – | –
2 | O=C(N/N=C(/c1ccccc1)C(F)(F)F)c1ccncc1 | – | – | – | > 100 | – | > 100 | – | > 100 | – | > 100 | – | > 100 | – | > 100 | – | > 100 | – | > 100 | > 100 | –
3 | CCCc1[nH]c(SCCCCCCCCSc2nc(-c3ccc(F)cc3)c(CCC)[nH]2)nc1-c1ccc(F)cc1 | – | > 100 | – | > 100 | – | – | – | – | – | 8.5 | – | – | – | – | – | > 100 | – | 29.6 | – | –
4 | CC1SC(c2ccccc2)N(CCc2cccs2)C1=O (stereo unspecified) | 4.6 | 18.3 | 3.94 | > 100 | 3.36 | 15.2 | 6.15 | 26.4 | 3.01 | 17.8 | 2.68 | 15.7 | 3.35 | 15.7 | 4.72 | 74.4 | 1.27 | 5.59 | 26.1 | 5.47
5 | COc1ccc(/C(=C2/O[C@@H]([C@H]3COC(C)(C)O3)[C@H]3OC(C)(C)O[C@@H]23)c2cc(OC)c(OC)c(OC)c2)cc1O | 7.28 | > 100 | 6.28 | > 100 | 12.3 | > 100 | 64.7 | > 100 | 6.36 | > 100 | 4.12 | > 100 | 18.7 | 43.9 | 45.1 | > 100 | 4 | 38.3 | > 100 | 9.96
6 | CN(C)CC(=O)Nc1ccc(Cn2nnc3c2C(=O)c2nnn(Cc4ccc(NC(=O)CN(C)C)cc4)c2C3=O)cc1 | – | – | 0.293 | > 100 | – | – | 0.209 | 0.444 | 0.172 | 0.342 | 0.253 | 0.825 | – | – | – | – | – | – | 0.266 | 0.115
7 | CCOC(=O)CSc1nc(N)c2c(-c3ccc(OC)c(OC)c3)c3c(nc2n1)CCCC3 | – | > 100 | – | > 100 | – | > 100 | – | – | – | 32.6 | – | > 100 | – | > 100 | – | > 100 | – | – | > 100 | –
8 | Cc1cccc2nc3c(C(=O)NCCN(C)C)cccc3cc12 | – | 4.49 | – | 8.22 | – | 9.44 | – | 4.65 | – | 6.75 | – | – | – | 4.65 | – | 7.11 | – | 3.99 | 2.78 | –
9 | CCN(CC)CC(C)Nc1ccc([N+](=O)[O-])c2sc3ccccc3c(=O)c12 (stereo unspecified) | 1.25 | 4.13 | 1.46 | 3.74 | 0.452 | 2.36 | 1.09 | 3.72 | 3.64 | 17.2 | 2.52 | > 100 | 1.4 | 9.95 | 1.08 | 4.18 | 1.39 | – | 3.76 | 1.31
10 | CNC(=O)OC(C)CN1c2ccccc2Sc2ccc(Cl)cc21 (stereo unspecified) | – | > 10 | – | > 10 | – | > 10 | – | > 10 | – | > 10 | – | > 10 | – | > 10 | – | > 10 | – | – | > 10 | –
11 | CCS(=O)(=O)Nc1ccc(Nc2c3ccccc3nc3ccccc23)c(OC)c1 | – | 7.13 | – | 14.6 | – | 6.15 | – | 3.19 | – | 3.01 | – | – | – | 3.34 | – | 22.4 | – | 5.35 | 2.37 | –
